In patent US20240158446A1, “CYCLIC COMPOUND HAVING SELECTIVE INHIBITORY ACTION ON KRAS OVER HRAS AND NRAS” (CHUGAI SEIYAKU KABUSHIKI KAISHA, priority 2021, published 2024):
pKd: −log10 of the molar value.

Experiments:
[1] = target: GDP-bound KRAS wild-type protein (Homo sapiens, UniProt P01116); experiment: Binding to KRAS by surface plasmon resonance (SPR), Single Cycle Kinetics; conditions: SPR, Single Cycle Kinetics, 1:1 binding model; GDP-bound KRAS wild-type protein; read-out: KRAS KD
[2] = target: GDP-bound NRAS wild-type protein (Homo sapiens, UniProt P01111); experiment: Binding to NRAS by surface plasmon resonance (SPR), Single Cycle Kinetics; conditions: SPR; GDP-bound NRAS wild-type protein vs GDP-bound KRAS wild-type protein; KD ratio class
[3] = target: GDP-bound HRAS wild-type protein (Homo sapiens, UniProt P01112); experiment: Binding to HRAS by surface plasmon resonance (SPR), Single Cycle Kinetics; conditions: SPR; GDP-bound HRAS wild-type protein vs GDP-bound KRAS wild-type protein; KD ratio class
Chain of GDP-bound HRAS wild-type protein (P01112 whole entry): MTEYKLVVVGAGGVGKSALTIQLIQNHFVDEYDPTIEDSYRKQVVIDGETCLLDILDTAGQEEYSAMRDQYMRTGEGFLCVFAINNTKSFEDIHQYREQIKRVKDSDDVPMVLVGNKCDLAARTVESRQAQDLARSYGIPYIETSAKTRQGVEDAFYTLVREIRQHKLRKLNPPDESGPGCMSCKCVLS

Chain of GDP-bound NRAS wild-type protein (P01111 whole entry): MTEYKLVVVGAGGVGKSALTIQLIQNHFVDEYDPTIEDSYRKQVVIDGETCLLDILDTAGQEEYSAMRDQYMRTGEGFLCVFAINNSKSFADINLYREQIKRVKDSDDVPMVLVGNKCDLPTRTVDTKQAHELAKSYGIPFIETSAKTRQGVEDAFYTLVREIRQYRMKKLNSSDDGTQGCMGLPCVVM
Chain of GDP-bound KRAS wild-type protein (P01116 whole entry): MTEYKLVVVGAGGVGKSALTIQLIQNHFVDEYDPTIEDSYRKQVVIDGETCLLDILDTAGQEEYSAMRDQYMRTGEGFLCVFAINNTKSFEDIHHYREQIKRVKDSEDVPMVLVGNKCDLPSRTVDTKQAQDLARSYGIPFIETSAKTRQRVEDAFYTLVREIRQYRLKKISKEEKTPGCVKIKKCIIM

Row | Structure (SMILES) | pKd [1] | NRAS/KRAS (ratio of KD value for NRAS to KD value for KRAS) [2] | HRAS/KRAS (ratio of KD value for HRAS to KD value for KRAS) [3]
1 | CCO[C@@H]1C[C@H]2C(=O)NC3(CCC3)C(=O)N(C)[C@@H](C(CC)CC)C(=O)N(C)[C@H](C(=O)N(C)CCOC)CC(=O)N(C)[C@@H](CC)C(=O)N[C@@H]([C@@H](C)CC)C(=O)N(C)CC(=O)N(C)[C@H]3C/C=C\CCN(C3=O)[C@@H](Cc3ccc(C(F)(F)F)cc3)C(=O)N(C)CC(=O)N[C@@H](CCc3cc(F)c(C(F)(F)F)c(F)c3)C(=O)N2C1 [PP1330] | 9.38 | AA (a compound having 20 or more is denoted as AA) | A (a compound having 10 or more and less than 20 is denoted as A)
2 | CCO[C@@H]1C[C@H]2C(=O)NC3(CCC3)C(=O)N(C)[C@@H](C3CCCC3)C(=O)N(C)[C@H](C(=O)N3CCOCC3)CC(=O)N(C)[C@@H](CC(C)C)C(=O)N[C@@H]([C@@H](C)CC)C(=O)N(C)CC(=O)N(C)[C@H]3CC/C=C(/C)CN(C3=O)[C@@H](Cc3ccc(C(F)(F)F)cc3)C(=O)N(C)CC(=O)N[C@@H](CCc3cc(F)c(C(F)(F)F)c(F)c3)C(=O)N2C1 [PP1333] | 7.24 | C (A compound having a KD ratio of 0.1 or more and less than 3 is denoted as C) | B (a compound having 3 or more and less than 10 is denoted as B)
3 | CCO[C@@H]1C[C@H]2C(=O)NC3(CCC3)C(=O)N(C)[C@@H](C3CCCC3)C(=O)N(C)[C@H](C(=O)N(C)C)CC(=O)N(C)[C@@H](CC)C(=O)N[C@@H]([C@@H](C)CC)C(=O)N(C)CC(=O)N(C)[C@H]3CC/C=C(/C)CN(C3=O)[C@@H](Cc3ccc(C(F)(F)F)cc3)C(=O)N(C)CC(=O)N[C@@H](CCc3cc(F)c(C(F)(F)F)c(F)c3)C(=O)N2C1 [PP1334] | 7.96 | B (a compound having 3 or more and less than 10 is denoted as B) | B (a compound having 3 or more and less than 10 is denoted as B)
4 | CCO[C@@H]1C[C@H]2C(=O)NC3(CCC3)C(=O)N(C)[C@@H](C3CCCC3)C(=O)N(C)[C@H](C(=O)N3CCOCC3)CC(=O)N(C)[C@@H](CC)C(=O)N[C@@H]([C@@H](C)CC)C(=O)N(C)CC(=O)N(C)[C@H]3CC/C=C(/C)CN(C3=O)[C@@H](Cc3ccc(C(F)(F)F)cc3)C(=O)N(C)CC(=O)N[C@@H](CCc3cc(F)c(C(F)(F)F)c(F)c3)C(=O)N2C1 [PP1335] | 7.74 | B (a compound having 3 or more and less than 10 is denoted as B) | B (a compound having 3 or more and less than 10 is denoted as B)

These reach a higher pKd [1]. Values come first.

Row | pKd [1] | Structure (SMILES) | NRAS/KRAS (ratio of KD value for NRAS to KD value for KRAS) [2] | HRAS/KRAS (ratio of KD value for HRAS to KD value for KRAS) [3]
5 | 10.01 | CCCN(C)C(=O)[C@@H]1CC(=O)N(C)[C@@H](CC(C)C)C(=O)N[C@@H]([C@@H](C)CC)C(=O)N(C)CC(=O)N(C)[C@H]2C/C=C\CCN(C2=O)[C@@H](Cc2ccc(C(F)(F)F)cc2)C(=O)N(C)CC(=O)N[C@@H](CCc2cc(F)c(C(F)(F)F)c(F)c2)C(=O)N2C[C@H](OCC)C[C@H]2C(=O)NC2(CCC2)C(=O)N(C)[C@@H](C2CCCC2)C(=O)N1C [PP1387, (2S,8S,12R,14S,20S,23S,27S,30S,36S,38Z)-20-cyclopentyl-8-[2-[3,5-difluoro-4-(trifluoromethyl)phenyl]ethyl]-12-ethoxy-27-isobutyl-N,4,19,22,26,32,35-heptamethyl-30-[(1S)-1-methylpropyl]-3,6,9,15,18,21,25,28,31,34,42-undecaoxo-N-propyl-2-[[4-(trifluoromethyl)phenyl]methyl]spiro[1,4,7,10,16,19,22,26,29,32,35-undecazatricyclo[34.5.1.0^10,14]dotetracont-38-ene-17,1′-cyclobutane]-23-carboxamide] | A (a compound having 10 or more and less than 20 is denoted as A) | B (a compound having 3 or more and less than 10 is denoted as B)
6 | 10.05 | CC[C@H](C)[C@@H]1NC(=O)[C@H](CC)N(C)C(=O)C[C@@H](C(=O)N(C)C)N(C)C(=O)[C@H](C2CCCC2)N(C)C(=O)C2(CCCC2)NC(=O)[C@@H]2CCCN2C(=O)[C@H](CCc2cc(F)c(C(F)(F)F)c(F)c2)NC(=O)CN(C)C(=O)[C@H](Cc2ccc(C(F)(F)F)cc2)N2CC(C)[C@@H](C)C[C@@H](C2=O)N(C)C(=O)CN(C)C1=O (stereo partly drawn) [PP1349] | C (A compound having a KD ratio of 0.1 or more and less than 3 is denoted as C) | B (a compound having 3 or more and less than 10 is denoted as B)
7 | 10.10 | CCC[C@H]1C(=O)N[C@@H]([C@@H](C)CC)C(=O)N(C)CC(=O)N(C)[C@H]2C/C=C\CCN(C2=O)[C@@H](Cc2ccc(C(F)(F)F)cc2)C(=O)N(C)CC(=O)N[C@@H](CCc2cc(F)c(C(F)(F)F)c(F)c2)C(=O)N2C[C@H](OCC)C[C@H]2C(=O)NC2(CCC2)C(=O)N(C)[C@@H](C2CCCC2)C(=O)N(C)[C@H](C(=O)N(C)CCOC)CC(=O)N1C [PP1331, (2S,8S,12R,14S,20S,23S,27S,30S,36S,38Z)-20-cyclopentyl-8-[2-[3,5-difluoro-4-(trifluoromethyl)phenyl]ethyl]-12-ethoxy-N-(2-methoxyethyl)-N,4,19,22,26,32,35-heptamethyl-30-[(1S)-1-methylpropyl]-3,6,9,15,18,21,25,28,31,34,42-undecaoxo-27-propyl-2-[[4-(trifluoromethyl)phenyl]methyl]spiro[1,4,7,10,16,19,22,26,29,32,35-undecazatricyclo[34.5.1.0^10,14]dotetracont-38-ene-17,1′-cyclobutane]-23-carboxamide] | A (a compound having 10 or more and less than 20 is denoted as A) | A (a compound having 10 or more and less than 20 is denoted as A)
8 | 10.12 | CCO[C@@H]1C[C@H]2C(=O)NC3(CCCC3)C(=O)N(C)[C@@H](C3CCCC3)C(=O)N(C)[C@H](C(=O)N3CCOCC3)CC(=O)N(C)[C@@H](CC)C(=O)N[C@@H]([C@@H](C)CC)C(=O)N(C)CC(=O)N(C)[C@H]3C[C@H](C)C(C)CN(C3=O)[C@@H](Cc3ccc(C(F)(F)F)cc3)C(=O)N(C)CC(=O)N[C@@H](CCc3cc(F)c(C(F)(F)F)c(F)c3)C(=O)N2C1 (stereo partly drawn) [PP1348] | B (a compound having 3 or more and less than 10 is denoted as B) | B (a compound having 3 or more and less than 10 is denoted as B)
9 | 10.77 | CCO[C@@H]1C[C@H]2C(=O)NC3(CCCC3)C(=O)N(C)[C@@H](C3CCCC3)C(=O)N(C)[C@H](C(=O)N(C)C)CC(=O)N(C)[C@@H](CC)C(=O)N[C@@H]([C@@H](C)CC)C(=O)N(C)CC(=O)N(C)[C@H]3C[C@H](C)C(C)CN(C3=O)[C@@H](Cc3ccc(C(F)(F)F)cc3)C(=O)N(C)CC(=O)N[C@@H](CCc3cc(F)c(C(F)(F)F)c(F)c3)C(=O)N2C1 (stereo partly drawn) [PP1347] | B (a compound having 3 or more and less than 10 is denoted as B) | B (a compound having 3 or more and less than 10 is denoted as B)
